Test systems include A498 renal; ACHN renal; NCI-H226 lung; OVCAR-3 ovarian; SK-MEL-5 melanoma; SNB-75 CNS; SR leukemia; UACC-257 melanoma; HCT-15 colon; RPMI-8226 leukemia.
Common to all, as to assay: NCI tumour cell line growth inhibition, 48 h

Where “and” joins values, the source holds several entries; their conditions need not be identical. Equal values may be shown once.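 In this assay, cells in 96-well plates receive the compound at five concentrations for 48 hours. Endpoints are linearly interpolated between the surrounding concentrations. GI50 marks 50% less growth. TGI denotes the concentration required for complete inhibition of growth.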

Take `C[C@H]1CCC2C(CN3CCCCC3)C(=O)OC2[C@]2(C)C(=O)CC(N3CCCCC3)C12O` (stereo partly specified): the TGI in the test on A498 renal turned out to be 12.8 µM; in the test with ACHN renal it was 9.73 µM; with NCI-H226 lung, 6.73 µM; with OVCAR-3 ovarian it was 14.7 µM; in the test on SK-MEL-5 melanoma, 16.3 µM; with SNB-75 CNS, 49.4 µM. Further, the results for the TGI with SR leukemia and with UACC-257 melanoma were 15.8 µM and 13.1 µM, respectively.

As for `CCOC(=O)CP(=S)(S)c1ccccc1` (stereo unspecified), the TGI in the test on A498 renal, in the test on ACHN renal, in the test on NCI-H226 lung, with SK-MEL-5 melanoma, with SR leukemia and with UACC-257 melanoma was over 100 µM in each case.

Turning to `C/C(CC(=O)Nc1ccc([N+](=O)[O-])cc1)=N\Nc1ccc([N+](=O)[O-])cc1[N+](=O)[O-]`, the TGI with A498 renal, in the test with ACHN renal, in the test on HCT-15 colon, with NCI-H226 lung, in the test on OVCAR-3 ovarian and in the test with RPMI-8226 leukemia was over 100 µM each time. Moreover, the TGI in the test on SK-MEL-5 melanoma, in the test on SNB-75 CNS and in the test with UACC-257 melanoma was over 100 µM throughout.

For the molecule `O=C(O)CCCc1cc2c(s1)-c1cccc3cccc-2c13`, the TGI was 76 µM in the test with ACHN renal; 51.8 µM in the test on HCT-15 colon; over 100 µM in the test with NCI-H226 lung; 49.5 µM in the test on OVCAR-3 ovarian; 72.5 µM in the test on RPMI-8226 leukemia; over 100 µM in the test with SNB-75 CNS. Also, the TGI in the test on SR leukemia stood at 56.9 µM; with UACC-257 melanoma it was 53.9 µM.

For `COc1ccc2c(c1)CC1N(C)CCC13CCCCC23` (stereo unspecified), the TGI with ACHN renal, in the test with HCT-15 colon, with NCI-H226 lung, in the test with OVCAR-3 ovarian, in the test on RPMI-8226 leukemia and in the test on SK-MEL-5 melanoma was over 100 µM each time. Further, the TGI in the test on SNB-75 CNS, in the test with SR leukemia and in the test on UACC-257 melanoma was over 100 µM in each case.

With `COc1cc(/C=C2\CC3C4CCC5=CC(=O)CC[C@]5(C)C4CC[C@]3(C)C2=O)ccc1OCCN1CCCCC1` (stereo partly specified), the GI50 with A498 renal is 1900 nM; in the test on ACHN renal, 3840 nM; with HCT-15 colon it was 3900 nM; in the test with NCI-H226 lung it was 5240 nM; with OVCAR-3 ovarian, 1830 nM; in the test on RPMI-8226 leukemia, 1880 nM. Further, the GI50 is 1510 nM in the test on SK-MEL-5 melanoma, 6970 nM in the test on SNB-75 CNS and 4800 nM in the test with UACC-257 melanoma. The TGI in the test with A498 renal was found to be 12.1 µM; in the test with ACHN renal, 13.1 µM; in the test on HCT-15 colon, 16 µM; with NCI-H226 lung, 21.1 µM; in the test on OVCAR-3 ovarian, 4.59 µM; with RPMI-8226 leukemia it was 5.05 µM. The TGI came out at 3.09 µM with SK-MEL-5 melanoma, 24.8 µM in the test with SNB-75 CNS and 18.4 µM with UACC-257 melanoma.

`COC1C(C)OC(OC2CC(C)(O)Cc3cc4c(c(O)c32)C(=O)c2c(O)cc3c(c2C4=O)OC2OC3(C)C(O)C(N(C)C)C2O)C(OC)C1(C)OC` (stereo unspecified): the GI50 in the test with ACHN renal was 216 nM; in the test with HCT-15 colon, 641 nM and 494 nM; with NCI-H226 lung it was 19.8 nM; in the test with OVCAR-3 ovarian it was 104 nM and 37.6 nM; with SNB-75 CNS, 3.61 nM and 31.5 nM; in the test with SR leukemia, 11.4 nM. Also, the GI50 with UACC-257 melanoma is 78.4 nM and 38.8 nM. For the same molecule, the TGI with HCT-15 colon was 9.85 µM and 15.2 µM; in the test on NCI-H226 lung, 0.395 µM and 0.113 µM.

As for `C=CNC(=S)n1nc(-c2ccccc2NC(=O)C(F)(F)F)c(=O)n(C(=S)NC=C)c1=S`, the TGI in the test on ACHN renal is over 100 µM; in the test with HCT-15 colon it was over 100 µM; with NCI-H226 lung, 86.6 µM; in the test with OVCAR-3 ovarian it was 28.8 µM; in the test on SK-MEL-5 melanoma it was 35.5 µM; with SNB-75 CNS, 62.8 µM. Also, the TGI with SR leukemia turned out to be 73.7 µM.

On to `CC(C)OC(=O)c1cccnc1/C=N/O`, for which the TGI in the test with A498 renal, in the test on ACHN renal, with HCT-15 colon, in the test on NCI-H226 lung, with OVCAR-3 ovarian and in the test with RPMI-8226 leukemia was over 100 µM each time. For the same molecule, the TGI in the test with SK-MEL-5 melanoma, in the test on SNB-75 CNS and in the test on UACC-257 melanoma was over 100 µM in each case.

As to `Cc1nc2cc(Nc3nc(Nc4ccc(F)cc4)nc(N4CCCC4)n3)ccc2n1Cc1ccccc1`, the GI50 with A498 renal was 1450 nM; with ACHN renal, 2190 nM; in the test with HCT-15 colon, 1880 nM; in the test with NCI-H226 lung it was 1900 nM; with OVCAR-3 ovarian it was 1770 nM; in the test with RPMI-8226 leukemia, 1860 nM. The GI50 with SK-MEL-5 melanoma is 1660 nM; in the test with SNB-75 CNS, 1580 nM; with UACC-257 melanoma, 2320 nM. In addition, the TGI in the test on A498 renal was determined as 3.24 µM; with ACHN renal it was 5.41 µM; with HCT-15 colon it was 3.99 µM; in the test on NCI-H226 lung it was 4.29 µM; in the test on OVCAR-3 ovarian, 3.28 µM; in the test with RPMI-8226 leukemia it was 4.55 µM. The TGI turned out to be 3.09 µM in the test on SK-MEL-5 melanoma, 3.45 µM in the test with SNB-75 CNS and 5.88 µM with UACC-257 melanoma.

Take `Cc1cc2c(C)nn(Cc3ccccc3Cl)c2c(C#N)c1C`: the TGI with ACHN renal, in the test on HCT-15 colon, in the test with NCI-H226 lung, in the test on OVCAR-3 ovarian, in the test on RPMI-8226 leukemia and in the test with SNB-75 CNS was over 100 µM throughout. Also, the TGI with SR leukemia and with UACC-257 melanoma was over 100 µM in each case.

With `COC(=O)[C@H](C)[C@@H]1CC[C@](C)(CCC2=C(C)CCCC2(C)C)OO1`, the TGI with ACHN renal, in the test on HCT-15 colon, in the test on OVCAR-3 ovarian, in the test on RPMI-8226 leukemia, in the test with SK-MEL-5 melanoma and in the test with SNB-75 CNS was over 25 µM in each case. Also, the TGI with SR leukemia and in the test on UACC-257 melanoma was over 25 µM in each case.

In the case of `CC(C)=Cc1cc(C(=O)NCCNC(=O)c2cc(C=C(C)C)nc(NC#N)n2)nc(NC#N)n1`, the TGI in the test on A498 renal, with ACHN renal, with HCT-15 colon, in the test with NCI-H226 lung, in the test on OVCAR-3 ovarian and in the test on RPMI-8226 leukemia was over 100 µM in each case. Moreover, the TGI with SK-MEL-5 melanoma, in the test with SNB-75 CNS and in the test on UACC-257 melanoma was over 100 µM each time.

These data come from PubChem BioAssay (NCI).
